Experimental data from ChEMBL document CHEMBL3877316, “Synthesis of pharmacologically important naphthoquinones and anticancer activity of 2-benzyllawsone through DNA topoisomerase-II inhibition” (Bioorg Med Chem, 2017).
The source made the active and inactive calls. The rule behind the calls is not given here.

What was measured:
Mus musculus [1] = assay: Acute toxicity in Swiss albino mouse assessed as serum SGOT level at 50 mg/kg, po qd administered as single dose for 7 days (reference value: 34.32 +/- 3.78 U/L); assay type: organism-based; settings: in vivo, 168 h
Mus musculus [2] = assay: Acute toxicity in Swiss albino mouse assessed as serum triglycerides level at 1000 mg/kg, po qd administered as single dose for 7 days (reference value: 107.9 +/- 10.7 mg/dl); assay type: organism-based; settings: in vivo, 168 h
Mus musculus [3] = assay: Acute toxicity in Swiss albino mouse assessed as serum triglycerides level at 5 mg/kg, po qd administered as single dose for 7 days (reference value: 107.9 +/- 10.7 mg/dl); assay type: organism-based; settings: in vivo, 168 h
Mus musculus [4] = assay: Acute toxicity in Swiss albino mouse assessed as serum SGOT level at 1000 mg/kg, po qd administered as single dose for 7 days (reference value: 34.32 +/- 3.78 U/L); assay type: organism-based; settings: in vivo, 168 h
Mus musculus [5] = assay: Acute toxicity in Swiss albino mouse assessed as effect on monocyte count up to 1000 mg/kg, po qd administered as single dose for 7 days; assay type: organism-based; settings: in vivo, 168 h
Mus musculus [6] = assay: Acute toxicity in Swiss albino mouse assessed as body weight at 5 mg/kg, po qd administered as single dose for 7 days (reference value: 27.73 +/- 0.94 g); assay type: organism-based; settings: in vivo, 168 h
Mus musculus [7] = assay: Acute toxicity in Swiss albino mouse assessed as serum protein level at 5 mg/kg, po qd administered as single dose for 7 days (reference value: 2.91 +/- 0.31 mg/ml); assay type: organism-based; settings: in vivo, 168 h
Mus musculus [8] = assay: Acute toxicity in Swiss albino mouse assessed as serum RBC level at 5 mg/kg, po qd administered as single dose for 7 days (reference value: 9.07 +/- 1.13 million/mm3); assay type: organism-based; settings: in vivo, 168 h
Mus musculus [9] = assay: Acute toxicity in Swiss albino mouse assessed as serum creatinine level at 50 mg/kg, po qd administered as single dose for 7 days (reference value: 0.09 +/- 0.01 mg/dl); assay type: organism-based; settings: in vivo, 168 h
FaDu = assay: Induction of apoptosis in human FADU cells at 10 uM by propidium iodide staining based flow cytometry; assay type: functional, cell-based
Mus musculus [10] = assay: Acute toxicity in Swiss albino mouse assessed as serum ALP level at 1000 mg/kg, po qd administered as single dose for 7 days (reference value: 292.13 +/- 40.29 U/L); assay type: organism-based; settings: in vivo, 168 h
Mus musculus [11] = assay: Acute toxicity in Swiss albino mouse assessed as body weight at 1000 mg/kg, po qd administered as single dose for 7 days (reference value: 27.73 +/- 0.94 g); assay type: organism-based; settings: in vivo, 168 h
Mus musculus [12] = assay: Acute toxicity in Swiss albino mouse assessed as serum haemoglobin level at 50 mg/kg, po qd administered as single dose for 7 days (reference value: 13.29 +/- 0.46 g/dl); assay type: organism-based; settings: in vivo, 168 h
Mus musculus [13] = assay: Acute toxicity in Swiss albino mouse assessed as serum haemoglobin level at 1000 mg/kg, po qd administered as single dose for 7 days (reference value: 13.29 +/- 0.46 g/dl); assay type: organism-based; settings: in vivo, 168 h
Mus musculus [14] = assay: Acute toxicity in Swiss albino mouse assessed as serum ALP level at 50 mg/kg, po qd administered as single dose for 7 days (reference value: 292.13 +/- 40.29 U/L); assay type: organism-based; settings: in vivo, 168 h
Mus musculus [15] = assay: Acute toxicity in Swiss albino mouse assessed as serum ALP level at 300 mg/kg, po qd administered as single dose for 7 days (reference value: 292.13 +/- 40.29 U/L); assay type: organism-based; settings: in vivo, 168 h
Mus musculus [16] = assay: Acute toxicity in Swiss albino mouse assessed as changes in response of mouse up to 1000 mg/kg, po qd administered as single dose for 7 days; assay type: organism-based; settings: in vivo, 168 h
[17] = Antiproliferative activity against human A549 cells after 48 hrs by SRB assay; assay type: functional, cell-based; settings: A549, 48 h
Mus musculus [18] = assay: Acute toxicity in Swiss albino mouse assessed as changes in absolute weight of kidney up to 1000 mg/kg, po qd administered as single dose for 7 days; assay type: organism-based; settings: in vivo, 168 h
Mus musculus [19] = assay: Acute toxicity in Swiss albino mouse assessed as serum cholesterol level at 1000 mg/kg, po qd administered as single dose for 7 days (reference value: 68.37 +/- 4.42 mg/dl); assay type: organism-based; settings: in vivo, 168 h
Mus musculus [20] = assay: Acute toxicity in Swiss albino mouse assessed as serum SGPT level at 5 mg/kg, po qd administered as single dose for 7 days (reference value: 23.06 +/- 1.92 U/L); assay type: organism-based; settings: in vivo, 168 h
[21] = Antiproliferative activity against human DU145 cells after 48 hrs by SRB assay; assay type: functional, cell-based; settings: DU-145, 48 h
Mus musculus [22] = assay: Acute toxicity in Swiss albino mouse assessed as mortality up to 1000 mg/kg, po qd administered as single dose for 7 days; assay type: organism-based; settings: in vivo, 168 h
Mus musculus [23] = assay: Acute toxicity in Swiss albino mouse assessed as serum WBC level at 5 mg/kg, po qd administered as single dose for 7 days (reference value: 8.64 +/- 0.42 10^3/mm3); assay type: organism-based; settings: in vivo, 168 h
Mus musculus [24] = assay: Acute toxicity in Swiss albino mouse assessed as serum haemoglobin level at 300 mg/kg, po qd administered as single dose for 7 days (reference value: 13.29 +/- 0.46 g/dl); assay type: organism-based; settings: in vivo, 168 h
Mus musculus [25] = assay: Acute toxicity in Swiss albino mouse assessed as effect on neutrophil count up to 1000 mg/kg, po qd administered as single dose for 7 days; assay type: organism-based; settings: in vivo, 168 h
Mus musculus [26] = assay: Acute toxicity in Swiss albino mouse assessed as serum WBC level at 1000 mg/kg, po qd administered as single dose for 7 days (reference value: 8.64 +/- 0.42 10^3/mm3); assay type: organism-based; settings: in vivo, 168 h
Mus musculus [27] = assay: Acute toxicity in Swiss albino mouse assessed as changes in absolute weight of spleen up to 1000 mg/kg, po qd administered as single dose for 7 days; assay type: organism-based; settings: in vivo, 168 h
Mus musculus [28] = assay: Acute toxicity in Swiss albino mouse assessed as serum creatinine level at 300 mg/kg, po qd administered as single dose for 7 days (reference value: 0.09 +/- 0.01 mg/dl); assay type: organism-based; settings: in vivo, 168 h
Mus musculus [29] = assay: Acute toxicity in Swiss albino mouse assessed as serum RBC level at 300 mg/kg, po qd administered as single dose for 7 days (reference value: 9.07 +/- 1.13 million/mm3); assay type: organism-based; settings: in vivo, 168 h
Mus musculus [30] = assay: Acute toxicity in Swiss albino mouse assessed as serum albumin level at 50 mg/kg, po qd administered as single dose for 7 days (reference value: 2.49 +/- 0.17 g/dl); assay type: organism-based; settings: in vivo, 168 h
Mus musculus [31] = assay: Acute toxicity in Swiss albino mouse assessed as serum SGOT level at 300 mg/kg, po qd administered as single dose for 7 days (reference value: 34.32 +/- 3.78 U/L); assay type: organism-based; settings: in vivo, 168 h
Mus musculus [32] = assay: Acute toxicity in Swiss albino mouse assessed as serum SGPT level at 1000 mg/kg, po qd administered as single dose for 7 days (reference value: 23.06 +/- 1.92 U/L); assay type: organism-based; settings: in vivo, 168 h
Mus musculus [33] = assay: Acute toxicity in Swiss albino mouse assessed as serum RBC level at 50 mg/kg, po qd administered as single dose for 7 days (reference value: 9.07 +/- 1.13 million/mm3); assay type: organism-based; settings: in vivo, 168 h
Mus musculus [34] = assay: Acute toxicity in Swiss albino mouse assessed as changes in absolute weight of liver up to 1000 mg/kg, po qd administered as single dose for 7 days; assay type: organism-based; settings: in vivo, 168 h

SMILES: O=C1C=C(OCc2ccccc2)C(=O)c2ccccc21
- Activity (Mus musculus [1]): 30.19 U/L
- Activity (Mus musculus [2]): 127.4 mg/dL
- Activity (Mus musculus [3]): 130.9 mg/dL
- Activity (Mus musculus [4]): 31.68 U/L
- Activity (Mus musculus [5]): Non-Toxic
- Activity (Mus musculus [6]): 26.34 g
- Activity (Mus musculus [7]): 2.55 mg/mL
- Activity (Mus musculus [8]): 8.67 million/mm3
- Activity (Mus musculus [9]): 0.16 mg/dL
- Activity (FaDu): Active
- Activity (Mus musculus [10]): 385.91 U/L
- Activity (Mus musculus [11]): 26.48 g
- Activity (Mus musculus [12]): 13.26 g/dL
- Activity (Mus musculus [13]): 13.28 g/dL
- Activity (Mus musculus [14]): 304.24 U/L
- Activity (Mus musculus [15]): 386.48 U/L
- Activity (Mus musculus [16]): Non-Toxic
- IC50 [17]: 6.83 µM
- Activity (Mus musculus [18]): Non-Toxic
- Activity (Mus musculus [19]): 51.05 mg/dL
- Activity (Mus musculus [20]): 19.16 U/L
- IC50 [21]: 10.6 µM
- Activity (Mus musculus [22]): Non-Toxic
- Activity (Mus musculus [23]): 8.66 ×10³ /mm3
- Activity (Mus musculus [24]): 13.42 g/dL
- Activity (Mus musculus [25]): Non-Toxic
- Activity (Mus musculus [26]): 8.7 ×10³ /mm3
- Activity (Mus musculus [27]): Non-Toxic
- Activity (Mus musculus [28]): 0.13 mg/dL
- Activity (Mus musculus [29]): 9.59 million/mm3
- Activity (Mus musculus [30]): 2.7 g/dL
- Activity (Mus musculus [31]): 33.87 U/L
- Activity (Mus musculus [32]): 25 U/L
- Activity (Mus musculus [33]): 8.54 million/mm3
- Activity (Mus musculus [34]): Non-Toxic
